# System: GAL-PPARα
# Assay: PPARα activation assay (GAL-PPARα / GAL4-Luc reporter) in HEK293 cells expressing endogenous AdipoR1
# Assay type: cell-based, human
# Experimental: A. ULMA enhances PPARα ligand activity; HEK293 cells were seeded on to 24 well plates and after 24 h, transfected with 100 ng of GAL-PPARα and 100 ng GAL4-Luc along with 100 ng eGFPC1 (Clontech) plasmids using lipofectamine LTX (Invitrogen) according to manufacturer's instructions. 24 h after transfection, cells were treated with or without 100 pM GW-7647 alone or in combination with 100 nM ULMA or 1 μg/ml globular adiponectin (gAd) for 6 h. Following which, the cells were lysed and GFP fluorescence and firefly luciferase activities were measured. Luciferase activity was normalized with GFP fluorescence and plotted as fold activity over vehicle (0.1% DMSO) treated control. Data shown in mean±SEM of three independent experiments performed in duplicates. *p<0.05 as determined by two tailed unpaired student's t-test.
# The potential of ULMA to activate adiponectin receptor signaling was evaluated using a PPARα activation assay. […] 24 hours following plating, these cells were transfected with 100 ng of GAL-PPARα (PPARα cDNA fused with GAL4 DNA binding domain) and 100 ng GAL4 upstream activation sequence driven luciferase (GAL4-Luc) reporter gene that is capable of binding to any protein fused to GAL4-DNA binding domain (in this case GAL-PPARα) and 100 ng Green fluorescence expressing plasmid (GFP) that was used as an internal control, using lipofectamine LTX transfection reagent (Invitrogen) according to manufacturers' instructions. […] The cells were then lysed and luciferase activity was measured in a Promega GloMax luminometer using steady Glo luciferase assay kit (Promega) according to manufacturers' instructions; and GFP fluorescence was measured in a fluorimeter (Polarstar Galaxy, BMG Labtech). […]
smiles,measurement,setting,value
"O=C1c2c(cc(O)c([C@@H]3O[C@H](CO)[C@@H](O)[C@H](O)[C@H]3O)c2O)O[C@@H](c2ccc(O)c(O)c2)[C@@H]1O [ULMA, (2S,3S)-(+)-3′,4′,5,7-tetrahydroxydihydroflavonol-6-C-β-D-glucopyranoside]","potency in enhancing PPARα ligand activity, comparison","100 nM ULMA vs 1 μg/ml globular adiponectin, with 100 pM GW-7647",more potent than globular adiponectin
same,enhancement of GW-7647 induced luciferase activity (PPARα ligand activity),"co-treatment with 100 pM GW-7647, 100 nM ULMA or 1 μg/ml globular adiponectin, 6 hours",further enhanced
